Reference: publication PMC11739737 (Clinical Pharmacology and Therapeutics, 2024)
Like-named read-outs stand apart in the source and are kept apart here. Marks after values point to notes of the source that are not given here. Blank lines part the entries; values can stand above or below the compound they belong to.

Assays:
[1] = type: in vivo, human; conditions: for Cmax: geometric mean (geometric %CV); for half-life: half‐life after T max
[2] = target: T1, recombinant NNMT protein (Homo sapiens, UniProt P40261); assay: NNMT activity assay; type: biochemical; conditions: nicotinamide 100 μM, 37°C, 6 min
T1 sequence (P40261 1-264): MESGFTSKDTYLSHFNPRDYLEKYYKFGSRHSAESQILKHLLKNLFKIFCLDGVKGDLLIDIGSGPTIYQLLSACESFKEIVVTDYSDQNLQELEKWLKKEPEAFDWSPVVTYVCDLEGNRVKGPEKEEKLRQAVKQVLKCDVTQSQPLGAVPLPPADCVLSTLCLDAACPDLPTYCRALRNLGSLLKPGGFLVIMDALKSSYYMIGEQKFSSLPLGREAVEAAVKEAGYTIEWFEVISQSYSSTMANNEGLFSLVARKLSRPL

[3] = system: OCT2 and MATE1/2-K; assay: clinical; conditions: male, human, in vivo, geometric mean; for AUC(0-t): AUC0–8hour; for CL renal: CLr (0–8 h)
[4] = target: T2, OCT2 (Homo sapiens, UniProt O15244); assay: Inhibition of OCT2-mediated metformin uptake in OCT2-HEK293 cells; type: in vitro ADME; conditions: HEK293 cells stably expressing OCT2, pH 7.4, probe metformin (10 μM)
T2 sequence (O15244 1-555): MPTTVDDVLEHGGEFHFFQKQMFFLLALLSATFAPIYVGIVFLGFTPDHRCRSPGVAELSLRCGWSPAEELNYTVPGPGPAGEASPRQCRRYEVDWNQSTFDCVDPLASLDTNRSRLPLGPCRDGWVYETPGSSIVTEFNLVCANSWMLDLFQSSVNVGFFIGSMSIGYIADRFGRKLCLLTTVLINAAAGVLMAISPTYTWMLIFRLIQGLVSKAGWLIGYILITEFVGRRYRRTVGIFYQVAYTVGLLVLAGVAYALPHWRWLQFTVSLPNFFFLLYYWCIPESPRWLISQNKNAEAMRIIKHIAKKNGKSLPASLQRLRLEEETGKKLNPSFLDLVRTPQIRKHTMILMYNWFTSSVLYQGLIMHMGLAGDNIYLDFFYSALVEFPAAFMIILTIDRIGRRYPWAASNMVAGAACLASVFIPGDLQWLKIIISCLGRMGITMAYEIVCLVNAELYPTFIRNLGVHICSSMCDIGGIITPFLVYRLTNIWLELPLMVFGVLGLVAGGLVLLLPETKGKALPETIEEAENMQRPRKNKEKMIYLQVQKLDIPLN

[5] = target: T3, MATE1 (Homo sapiens, UniProt Q96FL8); assay: Inhibition of MATE1-mediated metformin uptake in MATE1-HEK293 cells; type: in vitro ADME; conditions: K i for MATE1, metformin (10 μM) uptake, 37°C, MATE1-HEK; average of experiments
T3 sequence (Q96FL8 1-570): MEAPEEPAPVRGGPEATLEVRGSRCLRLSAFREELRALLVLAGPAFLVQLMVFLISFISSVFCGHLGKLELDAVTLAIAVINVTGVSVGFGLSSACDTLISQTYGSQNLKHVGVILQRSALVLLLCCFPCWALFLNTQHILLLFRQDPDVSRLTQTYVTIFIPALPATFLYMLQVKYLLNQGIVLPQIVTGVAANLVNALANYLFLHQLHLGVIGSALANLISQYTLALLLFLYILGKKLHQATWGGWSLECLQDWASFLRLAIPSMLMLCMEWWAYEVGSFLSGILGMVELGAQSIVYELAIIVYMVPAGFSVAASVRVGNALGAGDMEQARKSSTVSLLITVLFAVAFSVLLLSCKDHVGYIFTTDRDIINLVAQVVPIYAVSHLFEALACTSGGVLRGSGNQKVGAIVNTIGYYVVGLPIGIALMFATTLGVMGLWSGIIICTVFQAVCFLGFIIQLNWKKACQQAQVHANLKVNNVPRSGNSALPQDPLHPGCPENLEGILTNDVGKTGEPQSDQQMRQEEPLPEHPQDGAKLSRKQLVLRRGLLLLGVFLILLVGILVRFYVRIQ

[6] = target: MATE2‐K (Homo sapiens, UniProt Q86VL8); assay: Inhibition of MATE2‐K-mediated metformin uptake in MATE2‐K-HEK293 cells; type: in vitro ADME
Chain of MATE2‐K (Q86VL8 1-566 isoform Q86VL8-3): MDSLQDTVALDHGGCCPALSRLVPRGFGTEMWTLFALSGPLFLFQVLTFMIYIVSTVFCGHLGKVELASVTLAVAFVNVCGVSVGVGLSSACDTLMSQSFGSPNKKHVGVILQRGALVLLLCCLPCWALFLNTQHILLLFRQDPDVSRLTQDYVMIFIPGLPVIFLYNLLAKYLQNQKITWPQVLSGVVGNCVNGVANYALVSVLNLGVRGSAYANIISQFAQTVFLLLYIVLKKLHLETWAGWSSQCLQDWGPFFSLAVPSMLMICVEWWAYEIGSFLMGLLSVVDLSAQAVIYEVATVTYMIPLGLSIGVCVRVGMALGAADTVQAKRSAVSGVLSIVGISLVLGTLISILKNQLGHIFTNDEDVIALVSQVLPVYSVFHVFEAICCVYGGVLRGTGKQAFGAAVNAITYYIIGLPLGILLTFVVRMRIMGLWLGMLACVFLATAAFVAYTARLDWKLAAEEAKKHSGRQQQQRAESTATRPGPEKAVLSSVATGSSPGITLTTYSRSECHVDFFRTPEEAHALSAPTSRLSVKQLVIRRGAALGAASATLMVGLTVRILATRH

[7] = cited from earlier work
[8] = system: OCT2 and MATE1/2‐K; conditions: for fe of metformin (fraction recovered in the urine): geometric mean (geometric %CV)
[9] = system: OCT2 and MATE1/2-K; assay: clinical; conditions: male, human, in vivo; for AUC(0-t): AUC0–24hour, geometric mean; for Cmax: C max of metformin; for Cmax / CL renal: geometric mean (geometric %CV); for CL renal: CLr of metformin (0–24 hour)
[10] = system: OCT2 and MATE1/2‐K; conditions: at fifth dose of dolutegravir
[11] = system: OAT1/3; type: in vivo, human
[12] = dolutegravir (fifth) + metformin
[13] = dolutegravir (first) + metformin
[14] = male, human, plasma, oral, 50 mg
[15] = 50 mg, with dolutegravir 50 mg BID, fifth dose
[16] = 50 mg, with dolutegravir 50 mg BID, first dose

SMILES: CN/C(=N/CCSCc1nc[nH]c1C)NC#N [Cimetidine]
Cmax ([1]; male, human, plasma, oral, 800 mg, maximum plasma concentration (C max), cimetidine 800 mg): 25.7 µM
adverse event ([1]; one subject, cimetidine 800 mg (Period 2), judged to have no causal relationship with the study drug): Vomiting
inhibition of the activity of NNMT ([2]; cimetidine 20 μM): eliminated the possibility

SMILES: CN1CC(=O)NC1=N [Creatinine, creatinine]
AUC(0-t) ([3]; baseline): 641 µM·h
AUC(0-t) ([3]; cimetidine 400 mg + metformin): 669 µM·h
AUC(0-t) ([3]; cimetidine 800 mg + metformin): 689 µM·h
AUC(0-t) ([3]; control (metformin alone)): 600 µM·h
AUC(0-t) [3, 12]: 691 µM·h
AUC(0-t) [3, 13]: 712 µM·h

SMILES: CN(C)C(=N)N=C(N)N [Metformin]
decrease of CLr of metformin ([8]; cimetidine 400 mg): 15.5%
increase of AUC of metformin ([8]; cimetidine 400 mg): 1.7 times
decrease of CLr of metformin ([8]; cimetidine 800 mg): 42.5%
increase of AUC of metformin ([8]; cimetidine 800 mg): 2.2 times
increase of C max of metformin ([8]; co‐administration of cimetidine 400 mg): 2.1 times
increase of C max of metformin ([8]; co‐administration of cimetidine 800 mg): 2.7 times
decrease of CLr of metformin ([8]; dolutegravir fifth dose): 56.9%
decrease of CLr of metformin ([8]; dolutegravir first dose): 26.8%
increase of AUC of metformin ([8]; fifth dose of dolutegravir): 3.0 times
increase of C max of metformin ([8]; fifth dose of dolutegravir): 2.3 times
increase of AUC of metformin ([8]; first dose of dolutegravir): 1.8 times
increase of C max of metformin ([8]; first dose of dolutegravir): 1.6 times
fe of metformin (fraction recovered in the urine) ([8]; metformin 500 mg alone (control)): 0.649 (13.7)
fe of metformin (fraction recovered in the urine) ([8]; with cimetidine 400 mg): 0.940 (13.9)***
fe of metformin (fraction recovered in the urine) ([8]; with cimetidine 800 mg): 0.826 (22.1)**
fe of metformin (fraction recovered in the urine) ([8]; with dolutegravir 50 mg BID, fifth dose): 0.844 (20.7)**
fe of metformin (fraction recovered in the urine) ([8]; with dolutegravir 50 mg BID, first dose): 0.828 (20.6)**
AUC(0-t) [9, 15]: 213 µM·h
AUC(0-t) [9, 16]: 123 µM·h
Cmax [9, 15]: 23.8 µM
Cmax [9, 16]: 17 µM
CL renal [9, 15]: 199 mL/min
CL renal [9, 16]: 339 mL/min
AUC(0-t) ([9]; 800 mg, with cimetidine 800 mg): 154 µM·h
Cmax ([9]; 800 mg, with cimetidine 800 mg): 28 µM
CL renal ([9]; 800 mg, with cimetidine 800 mg): 269 mL/min

The next lines start with results.

Ki at 2 min [4]: 290 ± 40 nM
Ki [5]: 830 nM
Ki [6]: 2970 ± 400 nM
AUC [1, 14]: 209 µM·h
AUC(0-inf) [1, 14]: 141 µM·h
Cmax ([1]; male, human, plasma, oral, 50 mg, C max up to 12 hours after metformin administration, dolutegravir 50 mg BID, fifth dose): 21.7 µM
Cmax ([1]; male, human, plasma, oral, 50 mg, C max up to 12 hours after metformin administration, dolutegravir 50 mg BID, first dose): 7.07 µM
half-life ([1]; male, human, plasma, oral, 50 mg, dolutegravir 50 mg BID, fifth dose): 16.6 ± 1.7 h
half-life ([1]; male, human, plasma, oral, 50 mg, dolutegravir 50 mg BID, first dose): 13 ± 1.1 h
inhibition of the activity of NNMT ([2]; dolutegravir 30 μM): eliminated the possibility
SMILES: C[C@@H]1CCO[C@H]2Cn3cc(C(=O)NCc4ccc(F)cc4F)c(=O)c(O)c3C(=O)N12 [Dolutegravir]
elimination half‐life [7]: 13 to 14 h

AUC(0-t) ([3]; baseline): 0.822 µM·h
AUC(0-t) ([3]; cimetidine 400 mg + metformin): 0.918 µM·h
AUC(0-t) ([3]; cimetidine 800 mg + metformin): 0.984 µM·h
AUC(0-t) ([3]; control (metformin alone)): 0.791 µM·h
AUC(0-t) [3, 12]: 1.12 µM·h
AUC(0-t) [3, 13]: 0.977 µM·h
CL renal ([3]; baseline): 188 mL/min
CL renal ([3]; cimetidine 400 mg + metformin): 198 mL/min
CL renal ([3]; cimetidine 800 mg + metformin): 159 mL/min
CL renal ([3]; control (metformin alone)): 198 mL/min
clearance for tubular secretion remaining (CLr minus creatinine CLr) [10]: 29%
SMILES: Cn1cnc2c(ncn2[C@@H]2O[C@H](CO)[C@@H](O)[C@H]2O)c1=N [m^1A, N1‐methyladenosine]

magnitude of inhibition of CLr ([11]; at fifth dose of dolutegravir): at most 21%
change in CLr ([11]; with cimetidine): no change
SMILES: Cc1ncc(CO)c(C(=O)O)c1O [pyridoxic acid]
